Reference: US20180243317A1, “COMPOSITIONS COMPRISING A PI3K INHIBITOR AND AN HDAC INHIBITOR” (KARUS THERAPEUTICS LTD, priority 2015, published 2018)
Blank lines part the entries; values can stand above or below the compound they belong to.

Assays:
Human HDAC1 = target: T1, Human HDAC1 (Homo sapiens, UniProt Q13547); assay: HDAC biochemical assay with acetylated AMC-labeled peptide substrate; details: read-out: IC50 HDAC 1
T1 construct: full length with C-terminal His-tag and C-terminal FLAG-tag; His-tag (C); FLAG-tag (C); made in house; host or cells: baculovirus expression system
Protocol: (§1) Activity against all zinc-dependent HDACs 1 to 11 was assessed by using an acetylated AMC-labeled peptide substrate. The substrate RHKKAc was used for all class I and IIb HDACs; for HDAC8, the substrate used was RHKAcKAc. […] All assays were based on the AMC-labeled substrate and developer combination.
(§2) The protocol involved a two-step reaction: first, the substrate with the acetylated lysine side chain is incubated with a sample containing HDAC activity, to produce the deacetylated products, which are then digested in the second step by the addition of developer to produce the fluorescent signal proportional to the amount of deacetylated substrates.
Human HDAC1 (GenBank Accession No. NM_004964), full length with C-terminal His-tag and C-terminal FLAG-tag, MW=56 kDa, expressed in baculovirus expression system.
(§3) Before use, 1 mg/mL BSA and DMSO are added.
(§4) Incubate for 2 hours at 30° C.
(§5) Fluorescence background signal is then subtracted from compound data signal.
(§6) Stage 1: Deacetylation of substrate by incubation of HDAC enzymes with compounds
(§7) Stage 2: Development by addition of Developer to digest the deacetylated substrate, and generate the fluorescent color; Detection: 360/460 Ex/Em

Recombinant human HDAC6 = target: T2, Recombinant human HDAC6 (Homo sapiens, UniProt Q9UBN7); assay: as above; details: read-out: IC50 HDAC 6
T2 construct: GST (N); made in house; host or cells: Sf9 insect cells (baculovirus)
T2 sequence (Q9UBN7 1-1215): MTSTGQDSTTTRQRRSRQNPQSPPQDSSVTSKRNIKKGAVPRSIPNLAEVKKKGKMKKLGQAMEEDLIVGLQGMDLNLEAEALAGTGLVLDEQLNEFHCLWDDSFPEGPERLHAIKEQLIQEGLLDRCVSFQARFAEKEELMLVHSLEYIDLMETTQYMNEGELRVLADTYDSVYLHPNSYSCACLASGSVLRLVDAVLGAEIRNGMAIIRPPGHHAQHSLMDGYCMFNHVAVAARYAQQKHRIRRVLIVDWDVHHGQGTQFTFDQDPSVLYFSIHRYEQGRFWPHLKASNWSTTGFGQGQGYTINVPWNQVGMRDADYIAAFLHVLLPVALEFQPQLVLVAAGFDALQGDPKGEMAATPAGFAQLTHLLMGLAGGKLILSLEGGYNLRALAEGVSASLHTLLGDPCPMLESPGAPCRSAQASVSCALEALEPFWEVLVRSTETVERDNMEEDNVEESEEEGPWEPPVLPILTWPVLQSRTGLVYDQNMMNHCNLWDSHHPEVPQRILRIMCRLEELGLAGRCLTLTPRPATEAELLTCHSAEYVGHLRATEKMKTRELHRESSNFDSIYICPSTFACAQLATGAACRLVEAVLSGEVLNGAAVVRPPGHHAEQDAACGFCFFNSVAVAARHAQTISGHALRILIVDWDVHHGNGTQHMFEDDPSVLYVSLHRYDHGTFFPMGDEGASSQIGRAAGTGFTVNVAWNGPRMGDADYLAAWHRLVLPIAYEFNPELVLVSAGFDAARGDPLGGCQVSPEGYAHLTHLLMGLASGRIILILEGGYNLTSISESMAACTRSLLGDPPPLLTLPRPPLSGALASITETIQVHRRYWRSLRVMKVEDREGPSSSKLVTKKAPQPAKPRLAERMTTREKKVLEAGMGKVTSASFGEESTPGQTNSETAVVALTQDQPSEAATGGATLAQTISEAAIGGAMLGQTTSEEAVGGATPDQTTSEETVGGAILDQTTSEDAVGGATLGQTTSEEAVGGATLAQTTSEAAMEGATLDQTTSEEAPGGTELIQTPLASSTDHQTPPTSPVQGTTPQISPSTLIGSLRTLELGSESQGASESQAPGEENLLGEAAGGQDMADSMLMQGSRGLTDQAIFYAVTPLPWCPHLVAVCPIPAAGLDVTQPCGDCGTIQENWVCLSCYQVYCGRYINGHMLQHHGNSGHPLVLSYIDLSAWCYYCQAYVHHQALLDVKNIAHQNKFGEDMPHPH
Protocol: as §1, §2
Human HDAC5 (GenBank Accession No. NM_005474), full length with N-terminal GST tag, MW=150 kDa, expressed in baculovirus expression system. Recombinant human HDAC6 (GenBank Accession No. BC069243), full length, MW=180 kDa, was expressed by baculovirus in Sf9 insect cells using an N-terminal GST tag.
as §3, §4, §5, §6, §7

T1 sequence (Q13547 whole entry): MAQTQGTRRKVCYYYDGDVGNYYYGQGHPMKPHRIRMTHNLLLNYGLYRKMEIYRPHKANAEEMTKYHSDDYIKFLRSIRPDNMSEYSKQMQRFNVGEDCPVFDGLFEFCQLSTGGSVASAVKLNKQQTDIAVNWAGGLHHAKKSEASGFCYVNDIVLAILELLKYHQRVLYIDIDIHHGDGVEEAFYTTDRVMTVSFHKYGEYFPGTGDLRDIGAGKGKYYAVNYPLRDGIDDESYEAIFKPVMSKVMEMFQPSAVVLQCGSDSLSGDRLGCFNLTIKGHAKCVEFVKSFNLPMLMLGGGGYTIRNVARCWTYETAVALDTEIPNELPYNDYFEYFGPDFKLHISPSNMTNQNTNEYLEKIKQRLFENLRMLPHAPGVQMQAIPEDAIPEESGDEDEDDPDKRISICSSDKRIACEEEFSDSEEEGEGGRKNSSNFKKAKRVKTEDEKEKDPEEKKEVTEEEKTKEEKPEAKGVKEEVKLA

SMILES: O=C(NO)c1ccc(CN(c2ccc(F)cn2)c2cnccn2)cc1 [Example L, 4-(((5-Fluoropyridin-2-yl)(pyrazin-2-yl)amino)methyl)-N-hydroxybenzamide]
- IC50 (Human HDAC1): > 10 µM
- IC50 (Recombinant human HDAC6): ≤ 0.5 µM

SMILES: COc1cccnc1N(Cc1ccc(C(=O)NO)cc1)c1cnccn1 [Example JJ, N-Hydroxy-4-{[(3-methoxypyridin-2-yl)(pyrazin-2-yl)amino]methyl}benzamide]
- IC50 (Human HDAC1): 1 to 10 µM
- IC50 (Recombinant human HDAC6): ≤ 0.5 µM

SMILES: Cn1c(N(Cc2ccc(C(=O)NO)cc2)c2ccccn2)nc2ccccc21 [Example J, N-Hydroxy-4-(((1-methyl-1H-benzo[d]imidazol-2-yl)(pyridin-2-yl)amino)methyl)benzamide]
- IC50 (Human HDAC1): > 10 µM
- IC50 (Recombinant human HDAC6): ≤ 0.5 µM

SMILES: O=C(NO)c1ccc(CN(c2ccccn2)c2nc3ccccc3o2)cc1 [Example I, 4-((Benzo[d]oxazol-2-yl(pyridin-2-yl)amino)methyl)-N-hydroxybenzamide]
- IC50 (Human HDAC1): 1 to 10 µM
- IC50 (Recombinant human HDAC6): ≤ 0.5 µM

SMILES: O=C(NO)c1ccc(CN(c2ccccn2)c2nc(C(F)(F)F)ns2)cc1 [Example W, N-Hydroxy-4-((pyridin-2-yl(3-(trifluoromethyl)-1,2,4-thiadiazol-5-yl)amino)methyl)benzamide]
- IC50 (Human HDAC1): > 10 µM
- IC50 (Recombinant human HDAC6): ≤ 0.5 µM

SMILES: COc1cccnc1N(Cc1ccc(C(=O)NO)cc1F)c1cnccn1 [Example KK, 3-Fluoro-N-hydroxy-4-{[(3-methoxypyridin-2-yl)(pyrazin-2-yl)amino]methyl}benzamide]
- IC50 (Human HDAC1): 1 to 10 µM
- IC50 (Recombinant human HDAC6): ≤ 0.5 µM

SMILES: O=C(NO)c1ccc(CN(c2ccccn2)c2ncns2)cc1 [Example K, N-Hydroxy-4-((pyridin-2-yl(1,2,4-thiadiazol-5-yl)amino)methyl)benzamide]
- IC50 (Human HDAC1): > 10 µM
- IC50 (Recombinant human HDAC6): ≤ 0.5 µM

SMILES: Cc1nsc(N(Cc2ccc(C(=O)NO)cc2)c2ccc(F)cn2)n1 [Example R, 4-(((5-Fluoropyridin-2-yl)(3-methyl-1,2,4-thiadiazol-5-yl)amino)methyl)-N-hydroxybenzamide]
- IC50 (Human HDAC1): > 10 µM
- IC50 (Recombinant human HDAC6): ≤ 0.5 µM

SMILES: Cc1nnc(N(Cc2ccc(C(=O)NO)cc2)c2ccccn2)s1 [Example H, N-Hydroxy-4-(((5-methyl-1,3,4-thiadiazol-2-yl)(pyridin-2-yl)amino)methyl)benzamide]
- IC50 (Human HDAC1): > 10 µM
- IC50 (Recombinant human HDAC6): ≤ 0.5 µM

SMILES: Cn1ccc(N(Cc2ccc(C(=O)NO)cc2)c2cc(-c3ccc(F)cc3)ccn2)n1 [Example Q, 4-(((4-(4-Fluorophenyl)pyridin-2-yl)(1-methyl-1H-pyrazol-3-yl)amino)methyl)-N-hydroxybenzamide]
- IC50 (Human HDAC1): 1 to 10 µM
- IC50 (Recombinant human HDAC6): ≤ 0.5 µM

SMILES: COc1cccnc1N(Cc1ccc(C(=O)NO)cn1)c1cnccn1 [Example LL, N-Hydroxy-6-{[(3-methoxypyridin-2-yl)(pyrazin-2-yl)amino]methyl}pyridine-3-carboxamide]
- IC50 (Human HDAC1): > 10 µM
- IC50 (Recombinant human HDAC6): ≤ 0.5 µM

SMILES: Cc1nsc(N(Cc2ccc(C(=O)NO)cc2)c2cnccn2)n1 [Example OO, N-Hydroxy-4-{[(3-methyl-1,2,4-thiadiazol-5-yl)(pyrazin-2-yl)amino]methyl}benzamide]
- IC50 (Human HDAC1): 1 to 10 µM
- IC50 (Recombinant human HDAC6): ≤ 0.5 µM

SMILES: Cn1ccc(N(Cc2ccc(C(=O)NO)cc2)c2ccc(F)cn2)n1 [Example O, 4-(((5-Fluoropyridin-2-yl)(1-methyl-1H-pyrazol-3-yl)amino)methyl)-N-hydroxybenzamide]
- IC50 (Human HDAC1): > 10 µM
- IC50 (Recombinant human HDAC6): ≤ 0.5 µM

SMILES: Cc1nsc(N(Cc2ccc(C(=O)NO)cc2)c2cc(-c3ccc(F)cc3)ccn2)n1 [Example S, 4-(((4-(4-Fluorophenyl)pyridin-2-yl)(3-methyl-1,2,4-thiadiazol-5-yl)amino)methyl)-N-hydroxybenzamide]
- IC50 (Human HDAC1): > 10 µM
- IC50 (Recombinant human HDAC6): 1 to 10 µM

SMILES: O=C(NO)c1ccc(CN(c2ccc(F)cn2)c2nc(C(F)(F)F)ns2)cc1 [Example T, 4-(((5-Fluoropyridin-2-yl)(3-(trifluoromethyl)-1,2,4-thiadiazol-5-yl)amino)methyl)-N-hydroxybenzamide]
- IC50 (Human HDAC1): > 10 µM
- IC50 (Recombinant human HDAC6): 1 to 10 µM

SMILES: COc1ccnc(N(Cc2ccc(C(=O)NO)cc2)c2cnccn2)c1 [Example PP, N-Hydroxy-4-{[(4-methoxypyridin-2-yl)(pyrazin-2-yl)amino]methyl}benzamide]
- IC50 (Human HDAC1): 1 to 10 µM
- IC50 (Recombinant human HDAC6): ≤ 0.5 µM

SMILES: O=C(NO)c1ccc(CN(c2ccncn2)c2cnccn2)c(F)c1 [Example EE]
- IC50 (Human HDAC1): 1 to 10 µM
- IC50 (Recombinant human HDAC6): ≤ 0.5 µM

SMILES: O=C(NO)c1ccc(CN(c2cnccn2)c2cnccn2)c(F)c1 [Example HH, 4-{[Bis(pyrazin-2-yl)amino]methyl}-3-fluoro-N-hydroxybenzamide]
- IC50 (Human HDAC1): 1 to 10 µM
- IC50 (Recombinant human HDAC6): ≤ 0.5 µM

Next, values leading:

- IC50 (Human HDAC1): > 10 µM
- IC50 (Recombinant human HDAC6): ≤ 0.5 µM
SMILES: COc1cccnc1N(Cc1ccc(C(=O)NO)cc1)c1ccc(C)cn1 [Example X, N-Hydroxy-4-(((3-methoxypyridin-2-yl)-(5-methylpyridin-2-yl)amino)methyl)benzamide]

- IC50 (Human HDAC1): > 10 µM
- IC50 (Recombinant human HDAC6): ≤ 0.5 µM
SMILES: O=C(NO)c1ccc(CN(c2cnccn2)c2cccnn2)cc1 [Example MM, N-Hydroxy-4-{[(pyrazin-2-yl)(pyridazin-3-yl)amino]methyl}benzamide]

- IC50 (Human HDAC1): 1 to 10 µM
- IC50 (Recombinant human HDAC6): ≤ 0.5 µM
SMILES: O=C(NO)c1ccc(CN(c2cnccn2)c2cnccn2)nc1 [Example II, 6-{[Bis(pyrazin-2-yl)amino]methyl}-N-hydroxypyridine-3-carboxamide]

- IC50 (Human HDAC1): > 10 µM
- IC50 (Recombinant human HDAC6): ≤ 0.5 µM
SMILES: O=C(NO)c1ccc(CN(c2cnccn2)c2cccnn2)c(F)c1 [Example NN, 3-Fluoro-N-hydroxy-4-{[(pyrazin-2-yl)(pyridazin-3-yl)amino]methyl}benzamide]

- IC50 (Human HDAC1): > 10 µM
- IC50 (Recombinant human HDAC6): ≤ 0.5 µM
SMILES: Cc1noc(N(Cc2ccc(C(=O)NO)cc2)c2ccc(F)cn2)n1 [Example M, 4-(((5-Fluoropyridin-2-yl)(3-methyl-1,2,4-oxadiazol-5-yl)amino)methyl)-N-hydroxybenzamide]

- IC50 (Human HDAC1): > 10 µM
- IC50 (Recombinant human HDAC6): ≤ 0.5 µM
SMILES: O=C(NO)c1ccc(CN(c2ccc(F)cn2)c2nc3ccccc3o2)cc1 [Example P, 4-((Benzo[d]oxazol-2-yl(5-fluoropyridin-2-yl)amino)methyl)-N-hydroxybenzamide]

- IC50 (Human HDAC1): 1 to 10 µM
- IC50 (Recombinant human HDAC6): ≤ 0.5 µM
SMILES: COc1ccc(N(Cc2ccc(C(=O)NO)cc2)c2ccc(N3CCOCC3)cn2)nc1 [Example AA, N-Hydroxy-4-(((5-methoxypyridin-2-yl)(5-morpholinopyridin-2-yl)amino)methyl)benzamide]

- IC50 (Recombinant human HDAC6): ≤ 0.5 µM
SMILES: O=C(NO)c1ccc(CN(c2ccccn2)c2nc3ccccc3s2)cc1 [Example V, 4-((Benzo[d]thiazol-2-yl(pyridin-2-yl)amino)methyl)-N-hydroxybenzamide]

- IC50 (Human HDAC1): > 10 µM
- IC50 (Recombinant human HDAC6): ≤ 0.5 µM
SMILES: COc1ccc(N(Cc2ccc(C(=O)NO)cc2)c2ccc(C)cn2)nc1 [Example Y, N-Hydroxy-4-(((5-methoxypyridin-2-yl)(5-methylpyridin-2-yl)amino)methyl)benzamide]

- IC50 (Human HDAC1): 1 to 10 µM
- IC50 (Recombinant human HDAC6): ≤ 0.5 µM
SMILES: O=C(NO)c1ccc(CN(c2ccncn2)c2cnccn2)cc1 [Example DD, N-Hydroxy-4-{[(pyrazin-2-yl)(pyrimidin-4-yl)amino]methyl}benzamide]
